The source made the active and inactive calls. How the calls were made is not given here. Numbered stars: 1 amine (or outer) side, 2 acyl side, 3 side chain; on linkers, the order of the positions; unused ones are H or OH. Bridge positions count the residues as written; N and C are the ends. Square brackets hold non-standard residues; d marks the D form. Peptide text beside a SMILES is read from it. I, II: the chains in the order shown. Actinocin(1to9) = Cc1c2oc3c(C)ccc(C(=O)[*:2])c3nc-2c(C(=O)[*:1])c(N)c1=O; NMeV = CN[C@H](C(=O)O)C(C)C; Sar = CNCC(=O)O
Assays:
Saccharomyces cerevisiae [1] = assay: Antifungal activity against yeast AD1-8u expressing Candida albicans CaMdr1p by agar disk diffusion assay; type: functional; further: test concentration or dose not given here
Candida albicans [2] = assay: Binding affinity to Candida albicans CaCdr1p expressed in yeast AD1-8u
Saccharomyces cerevisiae [3] = assay: Antifungal activity against yeast AD1-8u expressing Candida albicans CaCdr1p by agar disk diffusion assay; type: functional
Candida albicans [4] = assay: Binding affinity to Candida albicans CaMdr1p expressed in yeast AD1-8u
Wherever IZ is given: test concentration or dose not given here.

SMILES	inhibition zone (IZ) (Saccharomyces cerevisiae [1]) [cm]	Activity (Candida albicans [2])	inhibition zone (IZ) (Saccharomyces cerevisiae [3]) [cm]	Activity (Candida albicans [4])
CCCCCCCCCCCC[N+](C)(C)CCCS(=O)(=O)[O-]	0.8	inactive	0.2	Active
CCCCCCCCCCCC(=O)OCCN(C)C	0.2	Active	0.4	inactive
CCCCCCCCCCCC(=O)OCCN(CC)CC	0.7	inactive	0.2	Active
CCCCCCCCCCCCn1cncn1	0.1	Active	0.7	inactive
CN[C@H]1C[C@@H](N)[C@H](O)[C@@H](O[C@@H]2O[C@H](CO)[C@H](O)[C@H]3O[C@@]4(O[C@H]23)O[C@H]([C@H](N)CO)[C@H](O)[C@H](O)[C@H]4O)[C@@H]1O	0	inactive	0	inactive
CCCCCCCCCCCCCC(=O)OCCN(C)C	0	inactive	0	inactive
COc1ccc(CCN(C)CCCC(C#N)(c2ccc(OC)c(OC)c2)C(C)C)cc1OC (stereo unspecified)	0	Active	0.9	inactive
CCN(CC)C(=S)SSC(=S)N(CC)CC	0.3	Active	0.4	Active
O=[N+]([O-])c1cc[n+]([O-])c2ccccc12 [4-NITROQUINOLINE-1-OXIDE]	0.4	Active	0.3	Active
c1ccc(CNc2ncnc3[nH]cnc23)cc1 [6-BENZYLAMINOPURINE]	0	inactive	0	inactive
COc1ccc(C[C@H]2NC[C@H](O)[C@H]2OC(C)=O)cc1 [ANISOMYCIN]	0.7	Active	0.9	Active
CCCCNC(=O)n1c(NC(=O)OC)nc2ccccc21 [BENOMYL]	0.4	Active	0.9	Active
COc1ccc2cc3[n+](cc2c1OC)CCc1cc2c(cc1-3)OCO2.[Cl-] [BERBERINE CHLORIDE]	0	Active	0.5	inactive
N#CC(C#N)=NNc1cccc(Cl)c1 [CARBONYL CYANIDE M-CHLOROPHENYLHYDRAZONE]	0	inactive	0	inactive
O=C(N[C@H](CO)[C@H](O)c1ccc([N+](=O)[O-])cc1)C(Cl)Cl [CHLORAMPHENICOL]	0	Active	0.8	inactive
CON(C)C(=O)Nc1ccc(Br)c(Cl)c1 [CHLORBROMURON]	0.1	Active	0.9	inactive
Clc1ccccc1C(c1ccccc1)(c1ccccc1)n1ccnc1 [CLOTRIMAZOLE]	0	Active	0.7	inactive
COc1cc2c(c(OC)c1OC)-c1ccc(OC)c(=O)cc1[C@@H](NC(C)=O)CC2 [COLCHICINE]	0	inactive	0	inactive
C[C@@H]1C[C@@H]([C@H](O)CC2CC(=O)NC(=O)C2)C(=O)[C@@H](C)C1 [CYCLOHEXIMIDE]	0.8	Active	1.2	Active
O=P1(N(CCCl)CCCl)NCCCO1 (stereo unspecified) [CYCLOPHOSPHAMIDE ANHYDROUS]	0	inactive	0	inactive
Cc1c2oc3c(C)ccc(C(=O)N[C@@H]4C(=O)N[C@H](C(C)C)C(=O)N5CCC[C@H]5C(=O)N(C)CC(=O)N(C)[C@@H](C(C)C)C(=O)O[C@@H]4C)c3nc-2c(C(=O)N[C@@H]2C(=O)N[C@H](C(C)C)C(=O)N3CCC[C@H]3C(=O)N(C)CC(=O)N(C)[C@@H](C(C)C)C(=O)O[C@@H]2C)c(N)c1=O [DACTINOMYCIN] (I: T[dV]P[Sar][NMeV] / II: T[dV]P[Sar][NMeV]; ester I:1-I:C, II:1-II:C; linker I:N-II:N via Actinocin(1to9))	0.3	inactive	0.1	Active

SMILES	inhibition zone (IZ) (Saccharomyces cerevisiae [1]) [cm]	Activity (Candida albicans [2])	inhibition zone (IZ) (Saccharomyces cerevisiae [3]) [cm]	Activity (Candida albicans [4])
COc1cccc2c1C(=O)c1c(O)c3c(c(O)c1C2=O)C[C@@](O)(C(C)=O)C[C@@H]3O[C@H]1C[C@H](N)[C@H](O)[C@H](C)O1 [DAUNORUBICIN]	0	Active	0.5	inactive
CN(C)C(=O)Nc1ccc(Cl)c(Cl)c1 [DCMU]	0.8	Active	0.8	Active
C[C@@H]1C[C@H]2[C@@H]3CCC4=CC(=O)C=C[C@]4(C)[C@@]3(F)[C@@H](O)C[C@]2(C)[C@@]1(O)C(=O)CO [DEXAMETHASONE]	0	Active	0.9	inactive
COc1cccc2c1C(=O)c1c(O)c3c(c(O)c1C2=O)C[C@@](O)(C(=O)CO)C[C@@H]3O[C@H]1C[C@H](N)[C@H](O)[C@H](C)O1 [DOXORUBICIN]	0.3	Active	0.4	Active
C[C@]12CC[C@@H]3c4ccc(OS(=O)(=O)O)cc4CC[C@H]3[C@@H]1CCC2=O [ESTRONE SULFURIC ACID]	0	inactive	0	inactive
COc1cc([C@@H]2c3cc4c(cc3[C@@H](O[C@@H]3O[C@@H]5CO[C@@H](C)O[C@H]5[C@H](O)[C@H]3O)[C@H]3COC(=O)[C@H]23)OCO4)cc(OC)c1O [ETOPOSIDE]	0.3	Active	1.5	Active
OC(Cn1cncn1)(Cn1cncn1)c1ccc(F)cc1F [FLUCONAZOLE]	1.6	Active	2.3	Active
Nc1nc(=O)[nH]cc1F [FLUCYTOSINE]	0	inactive	0	inactive
OCCN1CCN(CCCN2c3ccccc3Sc3ccc(C(F)(F)F)cc32)CC1 [FLUPHENAZINE]	0.2	Active	0.3	inactive
COc1ccc2c3c([nH]c2c1)[C@H](C=C(C)C)N1C(=O)[C@@H]2CCCN2C(=O)[C@@H]1C3 [FUMITREMORGIN]	0	inactive	0	inactive
COc1cc2ncnc(Nc3ccc(F)c(Cl)c3)c2cc1OCCCN1CCOCC1 [GEFITINIB]	0.2	Active	–	inactive
c1c[nH]cn1 [IMIDAZOLE]	0	inactive	0	inactive
COc1ccc2c(c1)c(CC(=O)O)c(C)n2C(=O)c1ccc(Cl)cc1 [INDOMETHACIN]	0	inactive	0	inactive
CCC(C)n1ncn(-c2ccc(N3CCN(c4ccc(OCC5COC(Cn6cncn6)(c6ccc(Cl)cc6Cl)O5)cc4)CC3)cc2)c1=O (stereo unspecified) [ITRACONAZOLE]	0	Active	1.1	inactive
NC[C@H]1O[C@H](O[C@H]2[C@H](O)[C@@H](O[C@H]3O[C@H](CO)[C@@H](O)[C@H](N)[C@H]3O)[C@H](N)C[C@@H]2N)[C@H](O)[C@@H](O)[C@@H]1O [KANAMYCIN]	0.3	inactive	0.1	Active
CC(=O)N1CCN(c2ccc(OCC3COC(Cn4ccnc4)(c4ccc(Cl)cc4Cl)O3)cc2)CC1 (stereo unspecified) [KETOCONAZOLE]	–	Active	1.4	–
CCC[C@@H]1C[C@@H](C(=O)N[C@@H]([C@H]2O[C@H](SC)[C@H](O)[C@@H](O)[C@H]2O)[C@@H](C)O)N(C)C1 [LINCOMYCIN]	0	inactive	0	inactive
CON(C)C(=O)Nc1ccc(Cl)c(Cl)c1 [LINURON]	0.6	Active	0.8	Active
CN(Cc1cnc2nc(N)nc(N)c2n1)c1ccc(C(=O)N[C@@H](CCC(=O)O)C(=O)O)cc1 [METHOTREXATE]	0.8	inactive	0.1	Active
Clc1ccc(COC(Cn2ccnc2)c2ccc(Cl)cc2Cl)c(Cl)c1 (stereo unspecified) [MICONAZOLE]	0.2	Active	0.5	inactive

From ChEMBL document CHEMBL1275276, “Analysis of physico-chemical properties of substrates of ABC and MFS multidrug transporters of pathogenic Candida albicans” (2010)
